Assay results: paper PMC7480105, “Wbox2: A clathrin terminal domain–derived peptide inhibitor of clathrin-mediated endocytosis” (The Journal of Cell Biology, 2020)
No end group written: not given here.

Assays:
[1] = test system: TfnR uptake via CME in ARPE/HPV cells; test: TfnR uptake (in-cell ELISA) after peptide preincubation; assay type: cell-based; settings: 60-min preincubation with peptide at 37°C, concentration curves, n = 4 replicates (Fig. 7 F), read-out: IC50 for inhibition of TfnR uptake
Procedure: Peptides encoding the TAT sequence (YGRKKRRQRRR) followed by 10 amino acid sequences covering the four reported binding sites on the clathrin terminal domain (Fig. 7 A) were synthesized by GenScript (Piscataway, NJ) with >95% purity. Peptides were dissolved in dH2O and further diluted in PBS4+ (1× PBS buffer plus 0.2% BSA, 1 mM CaCl2, 1 mM MgCl2, and 5 mM D-glucose) or cell culture medium (for imaging) when applied to cells. Peptide solutions were stored at −20°C.
Internalization of TfnR, CD44, CD59, and Biotin-Tfn was quantified by in-cell ELISA following established protocols ([Conner and Schmid, 2003]; [Srinivasan et al., 2018]). Cells were seeded in 96-well plates (Costar) at 60–70% confluence and grown overnight. Before the assay, cells were starved for 30 min in PBS4+ at 37°C or treated with peptides in PBS4+ at 37°C for the indicated times. After starvation, cells were moved to 4°C, and culture medium was replaced with cold PBS4+ containing 5 µg/ml HTR-D65 (anti-TfnR mAb; [Schmid and Smythe, 1991]), anti-human CD44 or anti-human CD59 (BD PharMingen) or 5 µg/ml Biotin-Tfn (Sigma-Aldrich). For single-round assays, the above reagents were kept with cells for 20 min at 4°C and then washed out before uptake assay. For multiround assays, the above reagents were kept with cells throughout the uptake process. In parallel, some cells were kept at 4°C for the measurement of surface-bound ligands and blank controls, and some were incubated in a 37°C water bath for the indicated times. Acid wash (0.2 M acetic acid and 0.2 M NaCl, pH 2.3) was used to remove surface-bound antibodies, followed by washing with cold PBS. All were fixed with 4% PFA (Electron Microscopy Sciences) in PBS for 30 min at 37°C. 0.1% Triton X-100 was added for 6.5 min to permeabilize cells, followed by addition of blocking buffer. HTR-D65–, CD44-, and CD59-treated cells were blocked with Q-PBS (PBS, 2% BSA, 0.1% lysine, and 0.01% saponin, pH 7.4), and Biotin-Tfn–treated cells were blocked with 2% casein. Surface-bound and internalized HTR-D65, CD44, and CD59 were probed with goat anti-mouse antibody conjugated with HRP (Sigma-Aldrich), and Biotin-Tfn was probed with Streptavidin-POD conjugate (Sigma-Aldrich). Color was developed using o-phenylenediamine dihydrochloride (OPD) solution (Sigma-Aldrich), and absorbance was read at 490 nm (Biotek Synergy H1 Hybrid Reader). Cell number variation among wells was accounted for by bicinchoninic acid assay reading at 562 nm.

cell viability = test: Cell viability, Cell Counting Kit 8 (CCK-8); assay type: cell-based; settings: for cytotoxicity IC50 relative to concentration needed to inhibit CME: cytotoxicity vs CME inhibition
SNX9 = SNX9 (Homo sapiens, UniProt Q9Y5X1); test: Isothermal titration calorimetry with SNX9; assay type: binding; settings: ITC, 20°C, 20 mM Hepes, 150 mM NaCl, 1 mM TCEP, pH 7.4; 1.8 mM Wbox2 injected into 50 µM SNX9; two nonsymmetric sites model; read-out: binding affinity KD1, first Wbox2 binding site on SNX9
SNX9, sequence (Q9Y5X1 whole entry, species assumed): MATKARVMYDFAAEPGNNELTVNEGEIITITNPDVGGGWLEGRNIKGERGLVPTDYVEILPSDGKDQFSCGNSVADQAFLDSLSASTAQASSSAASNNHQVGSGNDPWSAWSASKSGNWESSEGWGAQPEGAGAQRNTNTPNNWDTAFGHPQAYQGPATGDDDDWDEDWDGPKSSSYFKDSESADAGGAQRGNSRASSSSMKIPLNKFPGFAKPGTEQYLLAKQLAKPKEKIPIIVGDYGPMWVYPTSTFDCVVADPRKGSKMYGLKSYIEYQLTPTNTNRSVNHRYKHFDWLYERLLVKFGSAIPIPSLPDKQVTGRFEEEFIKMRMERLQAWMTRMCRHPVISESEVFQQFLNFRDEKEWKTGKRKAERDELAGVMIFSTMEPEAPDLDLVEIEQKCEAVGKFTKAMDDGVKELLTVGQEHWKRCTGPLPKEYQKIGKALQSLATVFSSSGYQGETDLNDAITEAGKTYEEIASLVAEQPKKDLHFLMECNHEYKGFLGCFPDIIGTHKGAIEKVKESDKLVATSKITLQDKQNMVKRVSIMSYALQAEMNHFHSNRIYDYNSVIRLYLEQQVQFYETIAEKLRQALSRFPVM
From the text: GUSSI was further used to output the figures presented.

[2] = molecular target: hinge + appendage domain of the AP2 β2 subunit (β2-HAD) (UniProt P63010); settings: read-out: binding affinity KD to β2-HAD; ITC, 20°C, pH 7.4; 1.2 mM Wbox2 injected into 200 µM β2-HAD; A+B <–> AB model; binds a fraction of purified β2-HAD
hinge + appendage domain of the AP2 β2 subunit (β2-HAD), sequence (P63010 2-937): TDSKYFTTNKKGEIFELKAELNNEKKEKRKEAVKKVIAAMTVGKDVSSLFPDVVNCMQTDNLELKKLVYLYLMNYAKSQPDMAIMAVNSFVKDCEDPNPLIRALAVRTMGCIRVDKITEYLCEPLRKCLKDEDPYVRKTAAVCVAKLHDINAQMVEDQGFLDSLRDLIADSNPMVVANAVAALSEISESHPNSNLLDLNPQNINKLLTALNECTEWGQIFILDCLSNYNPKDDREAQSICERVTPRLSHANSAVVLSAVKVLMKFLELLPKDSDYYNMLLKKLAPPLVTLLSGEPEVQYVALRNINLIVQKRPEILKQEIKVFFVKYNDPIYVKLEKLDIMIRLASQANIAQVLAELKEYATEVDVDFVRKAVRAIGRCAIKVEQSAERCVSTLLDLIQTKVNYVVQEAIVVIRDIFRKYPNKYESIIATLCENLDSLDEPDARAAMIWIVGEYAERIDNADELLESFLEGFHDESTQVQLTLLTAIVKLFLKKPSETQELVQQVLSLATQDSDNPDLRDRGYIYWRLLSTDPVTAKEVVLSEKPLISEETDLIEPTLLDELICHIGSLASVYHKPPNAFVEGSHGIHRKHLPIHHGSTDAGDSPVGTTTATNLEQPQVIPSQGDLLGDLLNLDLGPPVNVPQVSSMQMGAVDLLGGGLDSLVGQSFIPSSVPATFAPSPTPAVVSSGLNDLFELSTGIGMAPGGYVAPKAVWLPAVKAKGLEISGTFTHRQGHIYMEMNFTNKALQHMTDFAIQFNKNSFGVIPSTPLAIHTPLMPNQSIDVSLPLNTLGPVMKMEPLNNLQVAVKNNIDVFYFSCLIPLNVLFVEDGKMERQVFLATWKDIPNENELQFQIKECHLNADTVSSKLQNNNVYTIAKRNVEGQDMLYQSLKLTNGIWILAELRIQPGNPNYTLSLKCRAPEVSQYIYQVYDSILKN
Procedure: Binding of TAT, Wbox2_mutant, and Wbox2 to SNX9 and β2-HAD was investigated by ITC using a MicroCal iTC200 (GE Healthcare Life Sciences). Measurements were performed at 20°C in reaction buffer: 20 mM Hepes, 150 mM NaCl, and 1 mM TCEP, pH 7.4. Protein and peptide concentrations were determined by absorbance at 280 and 205 nm, respectively. The peptides were injected from a syringe in 21 steps up to a molar excess over the protein concentration. Titration curves were executed with NITPIC and fitted with SEDPHAT.

Sequence | IC50 [1] | IC50 for cytotoxicity (cell viability; CCK-8, n = 4 replicates (Fig. S5)) | effect on cell viability (cell viability; concentrations ≤30 µM, CCK-8, n = 4 replicates (Fig. S5)) | cytotoxicity IC50 relative to concentration needed to inhibit CME (cell viability) | cytotoxicity IC50 relative to concentration needed to inhibit CME (cell viability; listed as CMEpi) | Kd (SNX9) | Kd [2]
YGRKKRRQRRRGFSCQIIGIS [Wbox2] | ~3 µM | > 40 µM | no effect | 10 fold | ~ 10 fold | 4 µM | 37.5 µM
YGRKKRRQRRRKTLQIFKSKI [Cbox2] | > 100 µM | – | – | – | – | – | –
YGRKKRRQRRRLAGCQIINYR [Wbox1] | ~3 µM | – | – | – | – | – | –
